The text below walks through data of paper PMC2972358 (Journal of molecular biology, 2010).

In one experiment the target is human MC4R (Homo sapiens, UniProt P32245). Nature of the experiment: Eu-NDP-MSH displacement binding assay, MC4R.
Experiment [1] addresses T1, human MC1R (Homo sapiens, UniProt Q01726). Nature of the experiment: Eu-NDP-MSH displacement binding assay, MC1R.
Experiment [2] deals with T1, human MC1R. As to conditions: at high concentration, printed in the Ki column, cited from earlier work.
Experiment [3] addresses human melanocortin receptor MC1R (Homo sapiens, UniProt Q01726). In kind it is cell-based. Conditions: absence of NDP-MSH; basal response taken as zero; HEK-293 cells with human MC1R.

Where two headings read alike, the source gives them in different places. Bridges are numbered along the chain shown (N, C = ends). Where no end group is shown, it is not given here.

T1 sequence (Q01726 whole entry): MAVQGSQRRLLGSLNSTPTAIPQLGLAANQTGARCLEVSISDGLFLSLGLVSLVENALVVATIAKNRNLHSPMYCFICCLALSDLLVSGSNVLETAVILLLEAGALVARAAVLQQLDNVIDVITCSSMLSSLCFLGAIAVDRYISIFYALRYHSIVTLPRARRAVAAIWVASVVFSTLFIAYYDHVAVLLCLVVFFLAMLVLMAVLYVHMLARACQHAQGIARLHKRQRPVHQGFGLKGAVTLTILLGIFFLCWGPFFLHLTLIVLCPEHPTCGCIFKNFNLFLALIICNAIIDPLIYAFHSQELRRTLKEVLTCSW
Sequence of human MC4R (P32245 whole entry): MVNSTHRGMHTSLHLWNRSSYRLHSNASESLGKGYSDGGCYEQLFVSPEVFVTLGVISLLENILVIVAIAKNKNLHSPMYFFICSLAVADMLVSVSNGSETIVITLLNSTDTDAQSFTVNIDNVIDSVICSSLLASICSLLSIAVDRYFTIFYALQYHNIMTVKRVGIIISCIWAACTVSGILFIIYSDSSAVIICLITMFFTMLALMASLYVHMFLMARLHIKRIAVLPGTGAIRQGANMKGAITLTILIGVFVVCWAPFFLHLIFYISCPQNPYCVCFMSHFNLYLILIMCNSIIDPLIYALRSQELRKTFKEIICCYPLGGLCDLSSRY
Sequence of human melanocortin receptor MC1R (Q01726 whole entry): as the sequence (Q01726 whole entry) above

On to “Ac-KKVVRPRTPLSAPCVATRNSCKPPAPACCDPCASCYCRFFNAFCYCRVLSLNC-NH2 (disulfide 14-29, 21-35, 28-46, 32-53, 37-44) [chi(+1 −1 +1)]”, for which the inhibitory constant (Ki) came out at 2.1 ± 0.3 nM at human MC4R and 4.9 ± 1.1 nM at human MC1R [1]. At human MC4R (fold difference of MC4R Ki relative to ASIP [chi(+1 +1 +1)]), this substance displayed an MC4R fold diff. of 1.6. The MC1R fold diff. on human MC1R [1] (fold difference of MC1R Ki relative to ASIP [chi(+1 +1 +1)]) is 7.0.
“CVRLHESCLGQQVPCCDPAATCYCRFFNAFCYCR (also: bicyclic or more (positions not given here)) [chi(−1 −1 0)]”: the “MC1R suppression of NDP-MSH binding (partial displacement of agonist)” value at human MC1R [2] is given as 26%.
In the case of “CVRLHESCLGQQVPCCDPAATCYCRFFRSACYCR (also: bicyclic or more (positions not given here)) [chi(−1 +1 0)]”, the “Effect on cAMP production at MC1R (functional class)” value in experiment [3] is “agonists”.
For the substance “CVRLHESCLGQQVPCCDPCATCYCRFFNAFCYCRKLGTAMNPCSRT (bicyclic or more) [AgRP [chi(−1 −1 −1)], reference compound]”, the “MC1R suppression of NDP-MSH binding (partial displacement of agonist)” value at human MC1R [2] and at human MC1R [2] (listed as chi(−1 −1 −1)) was 47% in each case.
